Reference: BigSolDB 2.1

CC1(C)C2CCC1(CS(=O)(=O)O)C(=O)C2 (stereo not drawn)
solubility (mole fraction)
Conditions | in acetyl acetate | in methyl acetate
305.7 K | 0.099 | 0.0236
310.6 K | 0.122 | 0.0278
313.7 K | – | 0.0316
315.1 K | 0.134 | 0.0339
317.4 K | 0.15 | –
320.1 K | – | 0.0409
321.4 K | 0.161 | 0.039
324.9 K | 0.173 | 0.0459
328.9 K | 0.179 | –
329.1 K | – | 0.0546
331.7 K | 0.181 | –
334.6 K | – | 0.0726
339.1 K | – | 0.0906
